Experimental data taken from patent US20050014280A1, “In vitro method for determining drug permeability using immobilized artificial membrane chromatography” (priority 2003, published 2005).
Like-named read-outs stand apart in the source and are kept apart here.

Experiments:
[1] = Caco-2 cell permeability assay (published Pm values); format: in vitro ADME; settings: human
Description: Drug permeability assays using Caco-2 cells are currently widely used. Caco-2 cells are human colon adenocarcinoma cells that differentiate in culture to resemble intestinal epithelial cells.
The inventors used 21 reference compounds having a single positive charge at the pH at which the chromatography was performed, each having a published known permeability value, Pm, as determined by a Caco-2 cell assay by the various methods set out in references 1-7, below. The conditions used to determine the Caco-2 Pm values were generally similar in the cited references, although certain conditions varied between assays. Generally, the assays were performed at pH 7.4, with the exception of procaine and sumatriptan, for which the pH was 5.5 and 6.5, respectively. Therefore, for the experiments set out below, the pH of the mobile phase was 7.4 for all compounds except procaine (pH 5.5) and sumatriptan (6.5).

[2] = Immobilized artificial membrane (IAM) HPLC capacity factor; format: physicochemical; settings: 37° C.; for k′IAM (capacity factor): 1.0 ml/min, from average of 3 runs
Description: Sample Preparation: Between 3 and 10 mg of each sample was dissolved in a solution of 10% methanol, 90% water in preparation for injection onto the column.
HPLC Conditions: A Regis IAM.PC.DD2 column (30 mm×4.6 mm, 12 μm) was used, run at 37° C. at a flow rate of 1.0 ml/min. […] Elution of reference compounds was detected by ultraviolet absorbance at 210 nm.
Calculation of k′: Sodium nitrate was injected onto the column and the elution time was measured in order to determine the time for the void volume, t0, to pass through the column. Each reference compound was then injected onto the column and retention time, tR was recorded by detecting elution by measuring UV absorbance at 210 nm. The capacity factor, k′, was calculated by determining the adjusted retention time and dividing by the time for void volume elution, according to the formula k′=(tR−t0)/t0.
Each reference compound was tested three times and an average retention time was used.

Caco-2 cells = settings: cited from earlier work
[3] = Caco 2 donor pH 7.4, log of Pm in 10^−6 cm/s, read-out: Pm (converted)
[4] = mobile phase 85% 0.05 M ammonium phosphate pH 7.4 / 15% acetonitrile
[5] = mobile phase buffer pH 7.4 / 15% acetonitrile
[6] = mobile phase buffer pH 5.5 / 15% acetonitrile
[7] = mobile phase buffer pH 6.5 / 15% acetonitrile

| Compound | k′IAM (capacity factor) [2, 4] | logk′IAM [2, 5] | Pm (Caco-2 cells; Caco 2 donor pH 7.4) | Pm of Caco-2 Assay (Caco-2 cells; published Caco-2 assay, pH 7.4) | also measured |
| --- | --- | --- | --- | --- | --- |
| C=CCc1ccccc1OCC(O)CNC(C)C (stereo not shown) [Alprenolol] | 19.190 | 1.283 | 25.3 10^−6 cm/s | 25.3 +/− 10^−6 cm/s | Papp [1, 3]: 25.3 ×10⁻⁶ cm/s |
| Clc1cccc(Cl)c1N=C1NCCN1 [Clonidine] | 3.841 | 0.584 | 21.8 10^−6 cm/s | 21.8 +/− 10^−6 cm/s | Papp ([1]; Caco-2, pH 7.4): 21.8 ×10⁻⁶ cm/s |
| COc1ccc([C@@H]2Sc3ccccc3N(CCN(C)C)C(=O)[C@@H]2OC(C)=O)cc1 [Diltiazem] | 24.145 | 1.383 | – | – | – |
| CN(C)CCCN1c2ccccc2CCc2ccccc21 [Imipramine] | 91.053 | 1.959 | – | – | – |
| CC(CCc1ccccc1)NCC(O)c1ccc(O)c(C(N)=O)c1 (stereo not shown) [Labetalol] | 12.940 | 1.112 | – | – | – |
| COCCc1ccc(OCC(O)CNC(C)C)cc1 (stereo not shown) [Metoprolol] | 3.600 | 0.556 | 23.7 10^−6 cm/s | 23.7 +/− 10^−6 cm/s | Papp ([1]; Caco-2, pH 7.4): 23.7 ×10⁻⁶ cm/s |
| CC(C)(C)NCC(O)COc1cccc2c1CC(O)C(O)C2 (stereo not shown) [Nadolol] | 1.717 | 0.235 | 3.88 10^−6 cm/s | 3.88 +/− 10^−6 cm/s | Papp [1, 3]: 3.88 ×10⁻⁶ cm/s |
| CC(C)NCC(O)COc1cccc2[nH]ccc12 (stereo not shown) [Pindolol] | 4.712 | 0.673 | 16.7 10^−6 cm/s | 16.7 +/− 10^−6 cm/s | Papp ([1]; Caco-2, pH 7.4): 16.7 ×10⁻⁶ cm/s |
| CCN(CC)CCOC(=O)c1ccc(N)cc1 [Procaine] | – | – | – | – | Papp ([1]; Caco 2 donor pH 5.5, log of Pm in 10^−6 cm/s, read-out: Pm (converted)): 1.94 ×10⁻⁶ cm/s; logk′IAM [2, 6]: −0.368; k′IAM (capacity factor) [2, 6]: 0.428; Pm (Caco-2 cells; Caco 2 donor pH 5.5): 1.94 10^−6 cm/s; Pm of Caco-2 Assay (Caco-2 cells; published Caco-2 assay, pH 5.5): 1.94 +/− 10^−6 cm/s |
| CC(C)NCC(O)COc1cccc2ccccc12 (stereo not shown) [Propranolol] | 31.148 | 1.493 | 32.5 10^−6 cm/s | – | Papp ([1]; Caco-2, pH 7.4): 32.5 ×10⁻⁶ cm/s; Pm of Caco-2 Assay (Caco-2 cells; Caco-2, pH 7.4): 1.94 +/− 10^−6 cm/s |
| CN/C(=C\[N+](=O)[O-])NCCSCc1ccc(CN(C)C)o1 [Ranitidine] | 1.232 | 0.091 | 0.49 10^−6 cm/s | 0.49 +/− 10^−6 cm/s | Papp [1, 3]: 0.49 ×10⁻⁶ cm/s |
| CCN1CCCC1CNC(=O)c1cc(S(N)(=O)=O)ccc1OC (stereo not shown) [Sulpiride] | 1.804 | 0.256 | – | – | – |
| CNS(=O)(=O)Cc1ccc2[nH]cc(CCN(C)C)c2c1 [Sumatriptan] | – | – | – | – | Papp ([1]; Caco 2 donor pH 6.5, log of Pm in 10^−6 cm/s, read-out: Pm (converted)): 3 ×10⁻⁶ cm/s; logk′IAM [2, 7]: −0.077; k′IAM (capacity factor) [2, 7]: 0.837; Pm (Caco-2 cells; Caco 2 donor pH 6.5): 3 10^−6 cm/s; Pm of Caco-2 Assay (Caco-2 cells; published Caco-2 assay, pH 6.5): 3 10^−6 cm/s |
| CC(C)(C)NCC(O)c1cc(O)cc(O)c1 (stereo not shown) [Terbutaline] | 1.276 | 0.106 | 1.4 10^−6 cm/s | 1.4 +/− 10^−6 cm/s | Papp [1, 3]: 1.4 ×10⁻⁶ cm/s |
